Measurements from the supplement of paper PMC10307832.

Columns and labels:
Assay in all cases: relative viability (nuclei count vs DMSO), 5 days (fraction); higher = more cells survive
[1] = compound: CO[C@@H]1[C@H](N(C)C(=O)c2ccccc2)C[C@H]2O[C@]1(C)n1c3ccccc3c3c4c(c5c6ccccc6n2c5c31)C(=O)NC4 [Midostaurin] + CC(=O)c1c(C)c2cnc(Nc3ccc(N4CCNCC4)cn3)nc2n(C2CCCC2)c1=O [Palbociclib] (partner 0.5 µM)
How it was run: (§1)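 Nuclei were stained with Hoechst during a one-step fixation (final 0.05% Triton X-100, 1% formaldehyde, 1 ug/ml Hoechst) carried out 5 days after dosing, then counted on 4× images. The cells, lung cancer lines in 1536-well plates, had been dosed by pin tool the day after seeding with one drug alone or a fixed anchor-drug dose plus five library-drug doses (not always all listed) in √10 steps. Relative viability is the nuclei count in treated wells divided by that in vehicle wells, and each value is the median of duplicate plates.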

Midostaurin + Bortezomib = compound: CO[C@@H]1[C@H](N(C)C(=O)c2ccccc2)C[C@H]2O[C@]1(C)n1c3ccccc3c3c4c(c5c6ccccc6n2c5c31)C(=O)NC4 [Midostaurin] + CC(C)C[C@H](NC(=O)[C@H](Cc1ccccc1)NC(=O)c1cnccn1)B(O)O [Bortezomib] (partner 0.002 µM)
How it was run: as §1

[2] = compound: COc1cc(-c2nn([C@H]3CC[C@H](N4CCN(C(C)=O)CC4)CC3)c3ncnc(N)c23)ccc1NC(=O)c1cc2ccccc2n1C + Cc1nc(Nc2ncc(C(=O)Nc3c(C)cccc3Cl)s2)cc(N2CCN(CCO)CC2)n1 [Dasatinib] (partner 0.075 µM)
How it was run: as §1

[3] = compound: COc1cc(-c2nn([C@H]3CC[C@H](N4CCN(C(C)=O)CC4)CC3)c3ncnc(N)c23)ccc1NC(=O)c1cc2ccccc2n1C + O=C(CCCCCCC(=O)Nc1ccccc1)NO [Vorinostat] (partner 1 µM)
How it was run: as §1

Midostaurin + Linsitinib = compound: CO[C@@H]1[C@H](N(C)C(=O)c2ccccc2)C[C@H]2O[C@]1(C)n1c3ccccc3c3c4c(c5c6ccccc6n2c5c31)C(=O)NC4 [Midostaurin] + C[C@]1(O)C[C@@H](c2nc(-c3ccc4ccc(-c5ccccc5)nc4c3)c3c(N)nccn32)C1 [Linsitinib] (partner 1 µM)
How it was run: as §1

| Cell Line | relative viability ([1]; first compound 0.01 µM) | relative viability ([1]; first compound 0.03162 µM) | relative viability ([1]; first compound 0.1 µM) | relative viability ([1]; first compound 0.3162 µM) | relative viability (Midostaurin + Bortezomib; first compound 0.01 µM) | relative viability (Midostaurin + Bortezomib; first compound 0.03162 µM) | relative viability (Midostaurin + Bortezomib; first compound 0.1 µM) | relative viability (Midostaurin + Bortezomib; first compound 0.3162 µM) | relative viability ([2]; first compound 0.0128 µM) | relative viability ([2]; first compound 0.04048 µM) | relative viability ([2]; first compound 0.128 µM) | relative viability ([2]; first compound 1.28 µM) | relative viability ([3]; first compound 0.0128 µM) | relative viability ([3]; first compound 0.04048 µM) | relative viability ([3]; first compound 0.128 µM) | relative viability ([3]; first compound 1.28 µM) | relative viability (Midostaurin + Linsitinib; first compound 0.01 µM) | relative viability (Midostaurin + Linsitinib; first compound 0.03162 µM) | relative viability (Midostaurin + Linsitinib; first compound 0.1 µM) | relative viability (Midostaurin + Linsitinib; first compound 0.3162 µM) |
| --- | --- | --- | --- | --- | --- | --- | --- | --- | --- | --- | --- | --- | --- | --- | --- | --- | --- | --- | --- | --- |
| HOP-62 | 0.452 | 0.48 | 0.455 | 0.501 | 0.887 | 0.728 | 0.635 | 1.17 | 0.704 | 0.514 | 0.632 | 0.765 | 1.01 | 0.546 | 0.601 | 0.585 | 1.1 | 0.911 | 0.938 | 0.995 |
| LC-2-ad | 0.482 | 0.53 | 0.536 | 0.566 | 1.03 | 0.979 | 0.995 | 1 | 0.633 | 0.25 | 0.622 | 0.369 | 0.857 | 0.742 | 0.703 | 0.703 | 0.851 | 0.768 | 0.849 | 0.631 |
| LCLC-97TM1 | 0.276 | 0.233 | 0.251 | 0.244 | 0.475 |  | 0.419 | 0.595 | 0.97 | 0.348 | 0.789 | 0.697 | 0.875 | 0.395 | 0.735 | 0.968 | 0.193 |  | 0.145 | 0.184 |
| LCLC-103H | 0.449 | 0.484 | 0.512 | 0.542 | 1.07 | 0.924 | 1.02 | 1.1 | 0.538 | 0.472 | 0.41 | 0.449 | 0.63 | 0.768 | 0.802 | 0.819 | 1.12 | 1.16 | 1.16 | 1.14 |
| LOU-NH91 | 0.514 | 0.527 | 0.499 | 0.552 | 0.506 | 0.48 | 0.529 | 0.528 | 0.557 | 0.545 | 0.531 | 0.54 | 0.987 | 0.921 | 0.909 | 0.858 | 1.05 | 0.885 | 0.958 | 0.953 |
| LU99A | 0.386 | 0.513 | 0.371 | 0.386 | 1.08 | 1.17 | 1.1 | 0.998 | 0.541 | 0.541 | 0.634 | 0.556 | 0.609 | 0.523 | 0.426 | 0.628 | 0.5 | 0.503 | 0.408 | 0.407 |
| LXF-289 | 0.625 | 0.615 | 0.645 | 0.642 | 0.997 | 0.97 | 0.967 | 0.974 | 0.291 | 0.314 | 0.237 | 0.227 | 0.898 | 0.795 | 0.734 | 0.794 | 1 | 0.967 | 0.866 | 0.953 |
| NCI-H23 | 0.49 | 0.506 | 0.377 | 0.309 | 1.03 | 0.999 | 0.923 | 1.06 | 0.736 | 0.469 | 0.778 | 0.741 | 0.734 | 0.51 | 0.541 | 0.519 | 0.53 | 0.698 | 0.362 | 0.508 |
| NCI-H322M | 0.475 | 0.483 | 0.528 | 0.559 | 1.37 | 1.27 | 1.17 | 1.34 | 0.262 | 0.256 | 0.234 | 0.253 | 0.868 | 0.931 | 0.718 | 0.745 | 0.993 | 0.945 | 1.08 | 1.08 |
| NCI-H441 | 0.265 | 0.219 | 0.234 | 0.189 | 0.477 | 0.647 | 0.392 | 0.442 | 0.628 | 0.463 | 0.657 | 0.536 | 0.968 | 0.958 | 0.847 | 0.849 | 0.569 | 0.56 | 0.432 | 0.435 |
| NCI-H460 | 0.13 | 0.195 | 0.183 | 0.0929 | 1.19 | 1.19 | 1.01 | 1.1 | 0.526 | 0.386 | 0.475 | 0.507 | 0.735 | 0.983 | 0.642 | 0.709 | 0.739 | 0.732 | 0.75 | 0.694 |
| NCI-H520 | 0.24 | 0.228 | 0.246 | 0.276 | 0.657 | 0.492 | 0.594 | 0.596 | 0.211 | 0.273 | 0.236 | 0.307 | 0.738 | 0.652 | 0.6 | 0.543 | 0.924 | 0.991 | 0.968 | 0.787 |
| NCI-H647 | 0.462 | 0.396 | 0.485 | 0.465 | 0.953 | 1.07 | 0.876 | 0.765 | 0.155 | 0.227 | 0.164 | 0.203 | 0.422 | 0.698 | 0.606 | 0.421 | 1.09 | 1.37 | 1.1 | 0.738 |
| NCI-H650 | 0.347 | 0.34 | 0.318 | 0.313 | 0.635 | 0.783 | 0.734 | 0.625 | 0.475 | 0.592 | 0.462 | 0.456 | 0.633 | 0.709 | 0.443 | 0.517 | 0.715 | 0.862 | 0.76 | 0.508 |
| NCI-H661 | 0.399 | 0.41 | 0.438 | 0.469 | 0.742 | 0.933 | 0.667 | 0.72 | 0.923 | 0.765 | 0.829 | 0.94 | 0.761 | 0.971 | 0.819 | 1.01 | 0.56 | 0.638 | 0.532 | 0.439 |
